{"source": "patent US11992478B2", "about": "“Methods of using androgen receptor inhibitors as cancer therapeutics” (THE TRUSTEES OF THE UNIVERSITY OF PENNSYLVANIA, priority 2020, dated 2024)", "key": {"[1]": {"test_system": "p-ERK (MAPK activation)", "experiment": "ERK phosphorylation / MAPK activation (Western blot)", "format": "cell-based, human"}, "[2]": {"test_system": "human melanoma cells (WM46)", "experiment": "Cell proliferation of human melanoma cells (WM46)", "format": "cell-based", "conditions": "for proliferation following addition of cations: WM46, over 6-days (FIG. 4D)"}, "[3]": {"test_system": "mouse melanoma cells (YUMM1.7)", "experiment": "Cell proliferation of mouse melanoma cells (YUMM1.7)", "format": "cell-based"}, "[4]": {"test_system": "ZIP9", "conditions": "competitive binding assays; cited from earlier work"}, "[5]": {"test_system": "human WM46 melanoma", "experiment": "WM46 melanoma tumor growth in SCID mice", "format": "in vivo", "conditions": "for effect on tumors with engineered ZIP9 loss: either male or female mice", "excerpt": "The tumor-promoting effects of testosterone on early prostate cancer are known, and inhibition of testosterone signaling is a first-line treatment. […] Here it is shown that targeting nonclassical testosterone signaling through ZIP9 is therapeutically useful for cancer (FIG. 13)."}, "[6]": {"test_system": "cell lines derived from diverse human and murine tumor types", "experiment": "Testosterone-induced hyperproliferation in a panel of tumor cell lines (FIG. 11)", "format": "cell-based"}, "[7]": {"test_system": "melanoma cells", "experiment": "Testosterone-induced hyperproliferation in melanoma cells (FIG. 10A)", "format": "cell-based", "conditions": "2 μM Bicalutamide (FIG. 10A)"}, "[8]": {"test_system": "WM46 human melanoma cells", "experiment": "Reverse Phase Protein Array of testosterone-treated melanoma cells", "format": "cell-based", "conditions": "RPPA, testosterone 0, 30, 60 minutes and 8 hours", "excerpt": "(§1) (For clarity, this figure highlights only a subset of proteins from the entire data set of 450 proteins at 4 time points). […] FIG. 12B is a Western blot showing that testosterone promotes YAP nuclear translocation in WM46 cells. […] is used as control for the cytosolic fraction; PARP is used as a control for the nuclear fraction.\nTestosterone induces a rapid, ZIP9 dependent, increase in free cytosolic zinc that is required for the hyperproliferation. Zinc is required for myriad cellular enzymes and associated biologic process making it difficult to hypothesize a priori, what signaling mechanism(s) downstream of ZIP9 mediate the testosterone induced hyperproliferation. A 450 element Reverse Phase Protein Array analysis of human melanoma cells treated with testosterone for 0, 30 minutes, 60 minutes and 8 hours (FIG. 12A) was performed."}, "[9]": {"test_system": "primary human melanocytes", "experiment": "Cell proliferation of primary human melanocytes", "format": "cell-based", "conditions": "androgen treatment (FIG. 3A)"}, "[10]": {"test_system": "human PDAC", "experiment": "Cell proliferation of human PDAC cells", "format": "cell-based", "conditions": "human PDAC (FIG. 9C)"}, "[11]": {"test_system": "human WM46 melanoma cells", "experiment": "Cytosolic zinc influx with Fluo-Zin3 reporter", "format": "cell-based"}, "[12]": {"test_system": "YAP", "experiment": "YAP nuclear translocation (Western blot of fractions)", "format": "cell-based, human", "conditions": "WM46, testosterone exposure (FIG. 12B)", "excerpt": "as §1\nWhen activated, YAP and the related transcription factor TAZ are dephosphorylated and move from the cytosol to the nucleus. […] YAP is a substrate for 14-3-3ε, which sequesters YAP in the cytosol. As 14-3-3ε, was one of the proteins most depleted by testosterone, it is believed, without being bound by theory, that 14-3-3ε loss promotes YAP translocation to the nucleus where it then induces expression of tumor-promoting genes. It is likely that the MAK/ERK changes also contribute to testosterone induced YAP activation, as MEK and ERK1/2 are also major positive YAP regulators."}, "[13]": {"test_system": "murine PDAC", "experiment": "Cell proliferation of murine PDAC cells", "format": "cell-based, mouse"}, "[14]": {"conditions": "male SCID mice, 20 mg/kg/day systemic daily (FIG. 13C)"}}}
{"smiles": "c1ccc(CN(CCN(Cc2ccccn2)Cc2ccccn2)Cc2ccccn2)nc1", "note": "[TPEN, N,N,N′,N′-tetrakis (2-pyridinylmethyl)-1,2-ethanediamine]", "values": [{"measurement": "effect on testosterone p-ERK induction", "setting": "[1]; with testosterone (FIG. 10B)", "result": "completely blocked"}, {"measurement": "effect on proliferation on its own", "setting": "[2]; WM46, without testosterone (FIG. 4C)", "result": "no significant effect"}, {"measurement": "effect on testosterone induced proliferation", "setting": "[2]; WM46, zinc chelator plus testosterone, 6 days (FIG. 4C)", "result": "completely blocked"}, {"measurement": "effect on testosterone stimulated proliferation", "setting": "[3]; YUMM, zinc chelator plus testosterone (FIG. 7B)", "result": "blocked"}]}
{"smiles": "C[C@]12CCC(=O)C=C1CC[C@@H]1[C@@H]2CC[C@]2(C)C(=O)CC[C@@H]12", "note": "[androstenedione]", "values": [{"measurement": "ZIP9 binding specificity / affinity", "setting": "[4]", "result": "relatively low affinity"}]}
{"smiles": "CNC(=O)c1ccc(N2C(=S)N(c3cnc(C#N)c(C(F)(F)F)c3)C(=O)C23CCC3)cc1F", "note": "[apalutamide]", "values": [{"measurement": "effect on tumors with engineered ZIP9 loss", "setting": "[5]", "result": "no significant effect"}, {"measurement": "melanoma growth", "setting": "[5]; female mice, systemic delivery", "result": "no effect"}, {"measurement": "survival", "setting": "[5]; [14]", "result": "extend survival"}, {"measurement": "tumor growth", "setting": "[5]; [14]", "result": "inhibits tumor growth"}, {"measurement": "effect on testosterone driven increased proliferation", "setting": "[2]; WM46 (FIG. 10E)", "result": "inhibit testosterone driven increased proliferation"}, {"measurement": "effect on testosterone dependent-increased proliferation", "setting": "[2]; WM46, treated with 204 Apalutamide (so in the source)", "result": "reverted"}]}
{"smiles": "CC(O)(CS(=O)(=O)c1ccc(F)cc1)C(=O)Nc1ccc(C#N)c(C(F)(F)F)c1", "note": "(stereo not shown) [bicalutamide]", "values": [{"measurement": "cell lines in which testosterone-induced hyperproliferation is blocked", "setting": "[6]; FIG. 11", "result": "10/12"}, {"measurement": "effect on cell proliferation in the absence of testosterone", "setting": "[7]", "result": "no effect"}, {"measurement": "effect on tumors with engineered ZIP9 loss", "setting": "[5]", "result": "no significant effect"}, {"measurement": "tumor growth", "setting": "[5]; female mice, 30 mg/kg/day via oral gavage (FIG. 13A)", "result": "no effect"}]}
{"smiles": "C[C@]12CCC(=O)C[C@@H]1CC[C@@H]1[C@@H]2CC[C@]2(C)[C@@H](O)CC[C@@H]12", "note": "[dihydrotestosterone]", "values": [{"measurement": "ZIP9 binding specificity / affinity", "setting": "[4]", "result": "relatively low affinity"}]}
{"smiles": "[Fe]", "note": "[iron]", "values": [{"measurement": "proliferation following addition of cations", "setting": "[2]", "result": "Only zinc promoted proliferation"}]}
{"smiles": "[Mn+2]", "note": "[manganese]", "values": [{"measurement": "proliferation following addition of cations", "setting": "[2]", "result": "Only zinc promoted proliferation"}]}
{"smiles": "C[C@]12CC[C@H]3[C@@H](CCC4=CC(=O)CC[C@@]43C)[C@@H]1CC[C@@H]2O", "note": "[testosterone]", "values": [{"measurement": "14-3-3c protein expression", "setting": "[8]", "result": "downregulated"}, {"measurement": "CDKN2A (p16) protein expression", "setting": "[8]", "result": "downregulated"}, {"measurement": "YAP1 protein expression", "setting": "[8]", "result": "Upregulated"}, {"measurement": "phosphorylated ERK (T202; Y204) level", "setting": "[8]", "result": "Upregulated"}, {"measurement": "proliferative response to testosterone", "setting": "[6]; MCF7 cells", "result": "did not respond"}, {"measurement": "proliferative response to testosterone", "setting": "[6]; U87 cells", "result": "did not respond"}, {"measurement": "cellular proliferation", "setting": "[9]", "result": "markedly increased cellular proliferation"}, {"measurement": "ZIP9 binding specificity / affinity", "setting": "[4]", "result": "highly specific"}, {"measurement": "proliferation", "setting": "[10]", "result": "promotes proliferation"}, {"measurement": "ERK phosphorylation", "setting": "[1]; testosterone treatment (FIG. 3B)", "result": "increases ERK phosphorylation"}, {"measurement": "duration of sustained elevation in free cytosolic zinc", "setting": "[11]; WM46, in the presence of the androgen (FIG. 4B)", "result": "at least 2 days"}, {"measurement": "zinc influx", "setting": "[11]; WM46, over 5 minutes (FIG. 4A)", "result": "rapid zinc influx"}, {"measurement": "effect on zinc in cells lacking ZIP9", "setting": "[11]; ΔZIP9 WM46 (FIG. 7C)", "result": "no significant effect"}, {"measurement": "time to YAP movement from cytoplasm to nucleus", "setting": "[12]", "result": "30 to 60", "unit": "min"}, {"measurement": "cellular proliferation", "setting": "[2]", "result": "markedly increased cellular proliferation"}, {"measurement": "concentration of maximum proliferative response", "setting": "[2]", "result": 75, "unit": "nM"}, {"measurement": "proliferation of isogenic clones lacking ZIP9", "setting": "[2]", "result": "no effect"}, {"measurement": "response of ΔZIP9 cells in vitro", "setting": "[13]; mPDAC ΔZIP9 (FIG. 9E)", "result": "do not respond"}, {"measurement": "proliferation", "setting": "[13]; murine PDAC (FIG. 9C)", "result": "promotes proliferation"}, {"measurement": "cellular proliferation", "setting": "[3]; mouse melanoma cells, androgen treatment (FIG. 3A)", "result": "markedly increased cellular proliferation"}, {"measurement": "proliferation of isogenic clones lacking ZIP9", "setting": "[3]; ΔZIP9 YUMM (FIG. 7B)", "result": "no effect"}]}
{"smiles": "[Zn+2]", "note": "[zinc]", "values": [{"measurement": "proliferation following addition of cations", "setting": "[2]", "result": "promoted proliferation"}]}
